# Assay results from patent US9180107B2 (NANOPHARMACEUTICALS LLC, priority 2009, dated 2015).
# pIC50: −log10 of the molar value. Where two headings read alike, the source gives them in different places. Marks after values point to notes of the source that are not given here.
# Key:
# [1] = system: human breast cancer MDA-MB-231 cells (MDA-MB); assay: Anti-proliferation (total cell counts) in bellows cell culture system with pharmacodynamic modeling; format: cell-based; conditions: for pIC50 / Imaxk (maximum effect on rate of growth) / ImaxR (maximum effect on success of replication): MDA-MB 231
# Experimental: (§1) Each cell culture system is a compressible (bellows) 500 mL bottle which contains cell culture medium and specially-treated polymer flakes to which cells spontaneously attach and grow. Through moving bellows and porous membranes, the level of the medium in the bottle changes periodically. Consequently, the cells are alternately submerged in the culture medium, then exposed to 5% CO2/95% air which creates a dynamic interface between air and medium on the cell surface that maximizes nutrient uptake and oxygen transfer. The system provides a low shear, high aeration and foam-free culture environment. Proprietary treatment of the surfaces of the flakes enables seating and harvesting of cells and secreted proteins are readily isolated from the perfusate.
# (§2) In a non-perfusion bellows cell culture system that was also used, the medium in each bottle was replaced by fresh medium every 24 h. In the perfusion bellows cell culture system, medium was progressively refreshed over 24 h, i.e., one complete change of medium occurred over 24 h.
# In establishing the system, 5×10^7 cells were seeded in perfusion and non-perfusion bellows bottles and incubated overnight at 37° C. After that, flakes were harvested, trypsinized and cells were collected. Cell numbers were counted. […] For experiments, the perfusion bellows cell culture system was run for 2 d prior to starting experiments. […] Cell cultures were then exposed to 1% FBS-containing medium. Tetrac or nano-tetrac was added to the medium in the reservoir bottle to achieve the final concentrations reported for each experiment.
# (§3) The time course of cell counts of the various cancer lines treated with different concentrations of tetrac or nano-tetrac was modeled by utilizing the pooled approach in NONMEM VI (version 6.2). All time points and treatment arms within each experiment were modeled simultaneously. A mechanism-based model (see Bulitta et al., 2009. Antimicrob. Agents Chemother. 53:46-56) was adapted to describe the proliferation of cancer cells and the inhibition of proliferation by tetrac. This model assumes two populations of cells in different phases of the cell cycle: cells that are preparing for replication (phase 1) and cells that are immediately “pre-replication” (phase 2). Cells transition from phase 1 to phase 2 by a first-order growth rate constant, while replication from phase 2 to phase 1 is assumed to be fast (see FIG. 2).
# (§4) [formula] [formula] [formula] where C1 is the number of cells in phase 1, C2 the number of cells in phase 2, k21 the first order rate constant for replication (transition from phase 2 to phase 1), and k12 the first-order growth rate constant for transition from phase 1 to phase 2. The total number of cells Ct is the sum of C1 and C2. Rep is the replication efficiency factor which is described by:
# (§5) [formula] where Cmax is the maximum number of cells. Without tetrac, the replication efficiency factor approaches 2, which reflects a 100% probability of successful replication. InhR describes the inhibitory effect of tetrac on the probability of successful replication:
# (§6) [formula] Where ImaxR is the maximum effect of tetrac on probability of successful replication and IC50R is the tetrac concentration needed to achieve a half-maximal effect. Inhk describes the inhibitory effect of tetrac on the rate of growth:
# (§7) [formula] Where Imaxk is the maximum effect of tetrac on rate of growth and IC50k is the tetrac concentration needed to achieve a half-maximal effect. Results
# [2] = system: Human glioblastoma U87MG cells; assay: as above; format: cell-based; conditions: for decrease in cell counts compared with untreated control cells: 7-d treatment; for pIC50: Homo sapiens, U-87 MG, nano-tetrac IC50 are hypothetical concentrations assuming all bound tetrac is available
# Experimental: as §1, §2
# In establishing the system, 5×10^7 cells were seeded in perfusion and non-perfusion bellows bottles and incubated overnight at 37° C. After that, flakes were harvested, trypsinized and cells were collected. Cell numbers were counted. The numbers of cells that attached to were 10-15×10^6 per bottle. For experiments, the perfusion bellows cell culture system was run for 2 d prior to starting experiments. The cell numbers at this point were about 30-50×10^6 cells/bottle. Cell cultures were then exposed to 1% FBS-containing medium. Tetrac or nano-tetrac was added to the medium in the reservoir bottle to achieve the final concentrations reported for each experiment.
# as §3, §4, §5, §6, §7
# TGS112T cells = assay: Cell proliferation by cell counting; format: cell-based, human; conditions: treated daily with 10^−6 M
# Experimental: FIG. 6 is a series of graphs showing the effects of tetrac and nano-tetrac in human adenoid cystic carcinoma (TGS112T). In FIG. 6A, TGS112T cancer cells were treated with 10^−7M T4 in the presence or absence of 10^−7M tetrac for 24 h. T4-induced PCNA expression was inhibited by tetrac. In FIG. 6B, TGS112T cancer cells were treated with 10^−7 M T4 in the presence or absence of 10^−7 M tetrac or nano-tetrac, daily and 1 μCi [^3H]-thymidine (final concentration, 13 nM) was added for 24 h. […] In FIG. 6C, TGS112T cells were treated daily with 10^−6 M tetrac or nano-tetrac. Cells were harvested at the time points as indicated. Total cell numbers taken after each treatment were used as indicator for tetrac- or nano-tetrac-induced anti-proliferation.
# Human adenoid cystic carcinoma TGS112T cells were cultured in medium that contained 0.25% hormone-stripped serum for 2 d and then treated with 10^−7 M tetrac or nano-tetrac for 30 min prior institution of 10^−7 M T4 treatment for 24 h. Nuclear proteins were separated by SDS-PAGE followed by western blot analysis with proliferating-cell nuclear antigen (PCNA) antibody. Thyroid hormone-induced PCNA accumulation was inhibited by tetrac. (See FIG. 6A). […] (See FIG. 6A). Inhibition of thyroid hormone-induced proliferation was confirmed by inhibition by tetrac and nano-tetrac of thyroid hormone-induced accumulation and [^3H]-thymidine incorporation. […]
# [3] = study 2, rich data from one single study over 19 days
# [4] = U87MG, model parameter estimate
smiles,measurement,setting,value
"O=C(O)Cc1cc(I)c(Oc2cc(I)c(O)c(I)c2)c(I)c1 [tetrac, Tetraiodothyroacetic acid]",pIC50,"[1]; Homo sapiens, 456 h, study 2, rich data from one single study over 19 days, read-out: IC50R (effect on success of replication)",7.06
same,pIC50,"[1]; Homo sapiens, 456 h, study 2, rich data from one single study over 19 days, read-out: IC50k (effect on rate of growth)",5.29
same,inhibition at 0.1 µM,"[1]; Homo sapiens, MDA-MB-231, 192 h, read-out: inhibitory effect on cell growth",38%
same,pIC50,"[1]; Homo sapiens, study 1, sparse sampling, data pooled from two studies, read-out: IC50R (effect on success of replication)",5.36
same,pIC50,"[1]; Homo sapiens, study 1, sparse sampling, data pooled from two studies, read-out: IC50k (effect on rate of growth)",8.12
same,Imaxk (maximum effect on rate of growth),"[1]; study 1, sparse sampling, data pooled from two studies",0.19
same,ImaxR (maximum effect on success of replication),"[1]; study 1, Imax at time = 0, decreases with time",0.53^a
same,ImaxR (maximum effect on success of replication),[1]; [3],0.20
same,Imaxk (maximum effect on rate of growth),[1]; [3],0.85
same,decrease in cell counts compared with untreated control cells,[2]; 10^−7 M,> 28%
same,decrease in cell counts compared with untreated control cells,[2]; 10^−8 M,more than 15%
same,pIC50,"[2]; U87MG, model parameter estimate, read-out: IC50R (effect on success of replication)",4.32
same,pIC50,"[2]; U87MG, model parameter estimate, read-out: IC50k (effect on rate of growth)",7.33
same,ImaxR (maximum effect on success of replication),[2]; [4],0.92
same,Imaxk (maximum effect on rate of growth),[2]; [4],0.57
same,cell count after 7 d,TGS112T cells,3.65×10^8 cells
